Non-standard residues stand in square brackets, D forms with d. Residues, ends and D or L forms follow the SMILES beside them. Aib = CC(C)(N)C(=O)O
Tests used:
[1] = Lipid binding by fluorescence spectroscopy; details: Ri 0 (buffer, no lipids), 2 μM
Method: The lipid binding properties of the peptides synthesized in Section 6, supra, were tested by fluorescence measurements with labeled peptides, in the present case Tryptophane (Trp or W) or Naphtylalanine (Nal). The fluorescence spectra were recorded on a Fluoromax from Spex (Jobin-Yvon) equipped with a Xenon lamp of 150 W, two monochromators (excitation and emission), a photomultiplier R-928 for detection sensitive in the red up to 850 nm and a thermoelectric magnetic stirred cell holder. Quartz Suprasil cuvettes were used for measurements in the micromolar concentration range. A device of variable slits (from 0.4 to 5 nm) allows modulation of the incident and emitted intensities according to the concentration of peptide used. The reported values are in general the average of between 2 to 4 spectra. The peptide concentration is determined by absorption spectrometry on a Philips PU 8800 using the absorption band of the Trp (ε280 nm=5,550 M^−1 cm^−1 in Tris buffer) or the Nal (ε224 nm =92,770 M^−1 cm^−1 in methanol)
Fluorescence spectra of the peptides were recorded between 290 nm and 450 nm in Tris-HCl buffer (20 mM, pH=7.5), in the presence and absence of lipidic vesicles. The small unilamellar vesicles were formed after rehydration in buffer of the lyophilized phospholipids, dispersion and tip sonification under a N2 stream. The lipids used were either Egg PC/Chol. (20:1) or POPC/Chol. (20:1). The spectra were recorded at a peptide concentration of 2 μM and at a temperature of 37° C. The fluorescence reference standard in the case of Trp was N-acetyltryptophanylamide (NATA).
Lipid binding studies were done through progressive lipidic vesicle addition to the peptide in solution at 2 μM (slits: 5 nm in excitation and 1.5 nm in emission). Dilution effects were taken into account for the fluorescence intensity determination. The lipid concentrations were varied from 10 to 600 μM and the molar ratio of lipid to peptide (Ri) was varied from 5 to 300. The wavelength of excitation was set at 280 nm for both Trp and Nal.
The data were directly recorded and treated by an IBM-PC linked to the spectrofluorimeter through the DM3000F software from Spex. The spectra were corrected by substraction of the solvent contribution and by application of a coefficient given by the constructor taking into account the variation of the photomultiplier response versus the wavelength.
The fluorescence spectra of the peptides were characterized by the wavelength at their maximum of fluorescence emission and by their quantum yield compared to NATA in the case of peptides labeled with a tryptophane. The process of binding to lipids was analyzed by calculating the shift of the wavelength at the maximum of fluorescence emission, (λmax), and the variation of the relative fluorescence intensity of emission versus the lipid concentration. The relative fluorescence intensity is defined as the following ratio: (I-I0)λmax/I0λmax. I and I0 are both measured at the (λmax) corresponding to the initial free state of the peptide, i.e., without lipids. I is the intensity at a defined lipid to peptide ratio and I0 is the same parameter measured in absence of lipids. The absence of these variations is relevant of the absence of interactions of the peptides with the lipids.

HDL cholesterol = HDL cholesterol in rabbits after injection of phospholipid/peptide complex; format: in vivo, rabbit; details: 10 mg/kg i.v. as phospholipid complex
Method: Small discoidal particles consisting of phospholipid (DPPC) and peptide 146 (SEQ ID NO:146) were prepared following the cholate dialysis method. The phospholipid was dissolved in chloroform and dried under a stream of nitrogen. The peptide was dissolved in buffer (saline) at a concentration of 1-2 mg/ml. The lipid film was redissolved in buffer containing cholate (43° C.) and the peptide solution was added at a 3-1 phospholipid/peptide ratio. The mixture was incubated overnight at 43° C. and then dialyzed at 43° C. (24 hr.), room temperature (24 hr.) and 4° C. (24 hr.), with three changes of buffer (large volumes) at temperature point. The complexes were filter sterilized (0.22μ) for injection and storage at 4° C.
Male New Zealand White rabbits (2.5-3 kg) were injected intravenously with a dose of phospholipid/peptide complex (8 mg/kg bodyweight peptide 146 (SEQ ID NO:146) or 10 mg/kg bodyweight ApoA-I, expressed as peptide or protein content) in a single bolus injection not exceeding 10-15 ml. The animals were slightly sedated before the manipulations. Blood samples (collected on EDTA) were taken before and 5, 15, 30, 60, 240 and 1440 minutes after injection. The hematocrit (Hct) was determined for each sample. Samples were aliquoted and stored at −20° C. before analysis.
Plasma Lipids. The total plasma cholesterol, plasma triglycerides and plasma phospholipids were determined enzymatically using commercially available assays according to the manufacturer's protocols (Boehringer Mannheim, Mannheim, Germany and Biomerieux, 69280, Marcy-l'étoile, France).
Lipoprotein Profiles. The plasma lipoprotein profiles of the fractions obtained after the separation of the plasma into its lipoprotein fractions were determined by spinning in a sucrose density gradient. The fractions were collected and in each individual fraction the phospholipid and cholesterol content was measured enzymatically.

[2] = target: T1, LCAT (purified from human plasma) (Homo sapiens, UniProt P04180); experiment: LCAT activation assay; format: biochemical; details: LCAT activation as compared with native human ApoA-I (= 100%), equivalent masses
T1 construct: from tissue; host or cells: human plasma
T1 sequence (P04180 25-440): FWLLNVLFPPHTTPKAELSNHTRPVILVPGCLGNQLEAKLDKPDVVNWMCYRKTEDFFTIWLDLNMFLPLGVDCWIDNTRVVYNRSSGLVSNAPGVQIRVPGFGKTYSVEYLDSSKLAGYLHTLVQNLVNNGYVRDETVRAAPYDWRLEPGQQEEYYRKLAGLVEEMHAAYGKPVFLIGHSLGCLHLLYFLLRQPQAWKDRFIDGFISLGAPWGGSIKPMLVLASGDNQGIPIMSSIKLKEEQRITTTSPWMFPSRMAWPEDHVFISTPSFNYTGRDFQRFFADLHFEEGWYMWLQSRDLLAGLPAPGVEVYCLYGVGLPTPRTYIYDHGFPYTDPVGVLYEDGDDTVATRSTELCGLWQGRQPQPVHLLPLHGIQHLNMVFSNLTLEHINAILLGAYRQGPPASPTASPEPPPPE
Outline: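 Substrate SUVs of EPC or POPC with 14C-cholesterol (20:1 molar ratio), in 10 mM Tris, 0.14 M NaCl, 1 mM EDTA, pH 7.4, were preincubated with peptide or equal mass of plasma ApoA-I. Reaction started with human plasma LCAT; activation was measured as cholesterol-to-ester conversion relative to ApoA-I (100%).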

[3] = Circular dichroism helicity determination; format: physicochemical; details: percent helicity
Outline: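 Far-UV CD (190–260 nm) at 37° C on 5 μM peptide in 5 mM phosphate pH 7.4, free, with EPC:Chol 20:1 SUVs (Ri 30 or 50), lysophosphatidylcholine micelles (Ri 100) or 90% TFE. Spectra converted to molar ellipticity per residue; helicity from 222 nm ellipticity or CONTIN fitting to reference spectra, ±5%.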

CC(=O)N[C@@H](Cc1c[nH]c2ccccc12)C(N)=O [NATA, N-acetyltryptophanylamide, reference compound]
λmax (nm) [1]: 350 nm

Native ApoA-I: ApoA-I (isolated from human plasma), used as positive control; injected as phospholipid complex in rabbits
Increase in HDL Cholesterol (%) (HDL cholesterol; 5 min.): 19.3%
Increase in HDL Cholesterol (%) (HDL cholesterol; 15 min.): 16%
Increase in HDL Cholesterol (%) (HDL cholesterol; 60 min.): 15.8%
Increase in HDL Cholesterol (%) (HDL cholesterol; 240 min.): −24.1%

CC(C)C[C@H](NC(=O)[C@H](CCCCN)NC(=O)[C@H](CCC(N)=O)NC(=O)[C@H](CCCCN)NC(=O)[C@H](Cc1c[nH]c2ccccc12)NC(=O)[C@H](C)NC(=O)[C@H](CCC(=O)O)NC(=O)[C@H](CC(C)C)NC(=O)C(C)(C)NC(=O)[C@H](CCC(=O)O)NC(=O)[C@H](CC(N)=O)NC(=O)[C@H](CC(C)C)NC(=O)[C@H](CC(C)C)NC(=O)[C@H](CCC(=O)O)NC(=O)[C@H](CCCNC(=N)N)NC(=O)[C@H](Cc1ccccc1)NC(=O)[C@H](CC(C)C)NC(=O)[C@H](CC(=O)O)NC(=O)[C@H](CC(C)C)NC(=O)[C@@H](NC(=O)[C@@H]1CCCN1)C(C)C)C(=O)N[C@@H](CCCCN)C(=O)O [compound 38, PVLDLFRELLNEXLEAWKQKLK] (H-PVLDLFRELLNE[Aib]LEAWKQKLK-OH)
ACTIVITY (%) LCAT [2]: 29%
He (%) TFE ([3]; 5 μM peptide, 90% vol TFE, 37° C.): 49%
He (%) free ([3]; free, unbound peptide 5 μM in 5 mM phosphate buffer, pH 7.4, 37° C.): 25%
He (%) SUVs ([3]; peptide-SUV complexes (20:1 EPC:Chol., Ri=30 and Ri=50), 37° C.): 21%
He (%) mics ([3]; peptide-micelle complexes, Ri=100, 37° C.): 49%
